# According to ChEMBL document CHEMBL1201862, “PubChem BioAssay data set” (2004):
# Active and inactive are the calls of the source.
# Assays:
# [1] = biological target: T1, Histone-lysine N-methyltransferase NSD2 (Homo sapiens, UniProt O96028); assay type: biochemical
# T1 sequence (O96028 whole entry): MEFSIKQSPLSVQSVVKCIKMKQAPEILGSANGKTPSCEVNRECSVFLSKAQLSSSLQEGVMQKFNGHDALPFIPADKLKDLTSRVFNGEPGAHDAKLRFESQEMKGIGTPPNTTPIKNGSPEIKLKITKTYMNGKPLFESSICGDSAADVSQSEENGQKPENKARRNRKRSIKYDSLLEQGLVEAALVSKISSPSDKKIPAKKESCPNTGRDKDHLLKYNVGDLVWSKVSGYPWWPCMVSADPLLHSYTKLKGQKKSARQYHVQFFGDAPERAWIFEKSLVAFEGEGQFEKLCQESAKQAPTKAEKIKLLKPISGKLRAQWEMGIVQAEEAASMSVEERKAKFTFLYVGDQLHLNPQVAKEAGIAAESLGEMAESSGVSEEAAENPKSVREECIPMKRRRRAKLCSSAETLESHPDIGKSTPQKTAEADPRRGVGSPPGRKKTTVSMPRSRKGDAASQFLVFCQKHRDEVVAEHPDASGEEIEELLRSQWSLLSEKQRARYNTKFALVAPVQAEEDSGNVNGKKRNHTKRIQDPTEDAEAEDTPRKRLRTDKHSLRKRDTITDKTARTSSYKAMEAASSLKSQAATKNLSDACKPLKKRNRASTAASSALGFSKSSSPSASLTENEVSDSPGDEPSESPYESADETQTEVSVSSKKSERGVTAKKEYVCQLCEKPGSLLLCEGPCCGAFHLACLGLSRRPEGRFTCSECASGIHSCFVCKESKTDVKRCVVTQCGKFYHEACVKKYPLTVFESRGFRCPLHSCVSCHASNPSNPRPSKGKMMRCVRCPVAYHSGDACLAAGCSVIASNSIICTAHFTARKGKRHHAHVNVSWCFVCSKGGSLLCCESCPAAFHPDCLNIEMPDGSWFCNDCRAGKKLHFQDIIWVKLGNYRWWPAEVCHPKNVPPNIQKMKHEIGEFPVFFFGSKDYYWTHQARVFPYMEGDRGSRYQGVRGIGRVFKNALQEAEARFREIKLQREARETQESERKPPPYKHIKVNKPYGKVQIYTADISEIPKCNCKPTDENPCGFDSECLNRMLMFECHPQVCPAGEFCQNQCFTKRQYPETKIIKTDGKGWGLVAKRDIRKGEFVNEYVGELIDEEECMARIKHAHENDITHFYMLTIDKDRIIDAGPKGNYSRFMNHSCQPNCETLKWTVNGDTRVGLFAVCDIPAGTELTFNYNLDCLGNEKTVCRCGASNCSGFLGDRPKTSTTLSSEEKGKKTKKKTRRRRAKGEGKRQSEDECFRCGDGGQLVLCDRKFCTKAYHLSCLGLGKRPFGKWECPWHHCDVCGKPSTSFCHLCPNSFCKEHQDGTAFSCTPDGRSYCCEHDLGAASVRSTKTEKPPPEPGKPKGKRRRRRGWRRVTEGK
# [2] = biological target: T2, Sentrin-specific protease 6 (Homo sapiens, UniProt Q9GZR1); assay type: functional;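 note: Luminescence-based dose-response confirmatory assay of SENP6 inhibition, following up an ultra-high-throughput screen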
# T2 sequence (Q9GZR1 whole entry): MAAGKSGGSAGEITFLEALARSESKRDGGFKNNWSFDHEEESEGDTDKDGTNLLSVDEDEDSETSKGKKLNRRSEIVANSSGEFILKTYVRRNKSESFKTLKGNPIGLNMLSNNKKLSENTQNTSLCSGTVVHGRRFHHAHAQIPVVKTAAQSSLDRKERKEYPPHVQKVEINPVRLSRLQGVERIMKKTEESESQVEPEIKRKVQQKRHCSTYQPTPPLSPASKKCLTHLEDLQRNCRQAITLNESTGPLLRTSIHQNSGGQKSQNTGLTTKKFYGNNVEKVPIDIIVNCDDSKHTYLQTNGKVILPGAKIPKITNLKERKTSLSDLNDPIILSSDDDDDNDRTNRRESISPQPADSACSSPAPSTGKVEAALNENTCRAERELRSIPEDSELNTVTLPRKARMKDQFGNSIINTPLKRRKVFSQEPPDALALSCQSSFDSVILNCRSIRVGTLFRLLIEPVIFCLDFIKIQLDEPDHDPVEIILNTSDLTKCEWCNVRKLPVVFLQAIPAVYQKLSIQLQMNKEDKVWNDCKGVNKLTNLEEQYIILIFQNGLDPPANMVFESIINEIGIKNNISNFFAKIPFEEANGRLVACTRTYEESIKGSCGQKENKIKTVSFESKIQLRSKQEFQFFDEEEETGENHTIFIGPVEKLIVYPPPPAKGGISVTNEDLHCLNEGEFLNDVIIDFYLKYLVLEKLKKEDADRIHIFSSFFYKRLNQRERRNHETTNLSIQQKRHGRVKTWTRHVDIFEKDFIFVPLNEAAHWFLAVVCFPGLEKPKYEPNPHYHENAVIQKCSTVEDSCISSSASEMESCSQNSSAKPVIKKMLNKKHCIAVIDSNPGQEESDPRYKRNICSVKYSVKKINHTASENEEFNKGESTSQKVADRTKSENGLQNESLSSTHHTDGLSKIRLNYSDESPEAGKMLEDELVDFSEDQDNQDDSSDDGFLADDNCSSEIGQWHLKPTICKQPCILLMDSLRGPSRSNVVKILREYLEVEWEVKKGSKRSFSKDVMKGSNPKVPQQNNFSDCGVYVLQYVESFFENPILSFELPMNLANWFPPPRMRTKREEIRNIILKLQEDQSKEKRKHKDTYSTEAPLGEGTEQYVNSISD
# Leucine aminopeptidase = biological target: T3, Leucine aminopeptidase (Plasmodium falciparum 3D7, UniProt Q8IL11); experiment: P. falciparum M17LAP inhibitors, primary screen, biochemical, fluorogenic H-Leu-NHMec substrate, 1536-well (AID 1619); assay type: functional
# T3 sequence (Q8IL11 whole entry): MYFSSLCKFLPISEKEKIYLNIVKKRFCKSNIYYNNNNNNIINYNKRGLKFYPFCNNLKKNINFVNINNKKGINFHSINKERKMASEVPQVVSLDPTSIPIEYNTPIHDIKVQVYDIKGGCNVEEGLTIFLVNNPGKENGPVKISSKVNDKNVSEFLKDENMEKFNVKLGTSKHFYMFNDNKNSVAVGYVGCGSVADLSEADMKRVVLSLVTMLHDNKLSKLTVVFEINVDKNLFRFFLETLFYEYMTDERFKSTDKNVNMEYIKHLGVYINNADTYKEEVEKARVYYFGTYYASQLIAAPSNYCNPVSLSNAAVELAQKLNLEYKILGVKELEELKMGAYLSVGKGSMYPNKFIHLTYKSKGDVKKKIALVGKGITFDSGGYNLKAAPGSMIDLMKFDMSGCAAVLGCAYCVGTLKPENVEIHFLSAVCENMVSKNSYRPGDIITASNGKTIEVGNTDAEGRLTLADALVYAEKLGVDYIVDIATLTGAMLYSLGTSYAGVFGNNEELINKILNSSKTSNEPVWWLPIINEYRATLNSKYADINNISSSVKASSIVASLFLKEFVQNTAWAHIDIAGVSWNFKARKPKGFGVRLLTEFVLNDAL
SMILES,AC50 [1],IC50 [2],IC50 (Leucine aminopeptidase)
COc1cc(C(=O)c2nccc3cc(OC)c(OC)cc23)c([N+](=O)[O-])cc1OC,> 20 µM (inactive),0.936 µM (active),–
N#Cc1c(O)nc(SCC(=O)N2c3ccccc3Sc3ccccc32)nc1-c1ccccc1,–,–,10.2 µM (active)
c1ccc2c(Nc3nnc(-c4ccncc4)s3)cccc2c1,–,10.1 µM (active),–
N=C1S/C(=C\c2ccc(-c3ccccc3C(=O)O)o2)C(=O)N1c1ccc2c(c1)OCO2,3.28 µM (active),–,29 µM (active)
